Legend:
[1] = test system: Botrytis cinerea spores; assay: Botrytis cinerea spore (conidia) germination assay; format: cell-based; conditions: pure PEA; 14 hours at 4° C.; absorbance 570 nm
Method: In this point, the PEA volatile compound effect was tested in B.c. spores germination. The assay consisted in inoculate B.c. spores in 100 μL of malt yeast nutritive media (ML, 0.3% malt and 0.2% yeast extract), using 40 μL of a B.c. spore suspension with a 10^5 spores/mL concentration. Resuspended spores in ML media were transferred to sterile multiwall plates (140 μL/well) and then these plates were put in a hermetic and sealed container during a definite time, in dark and at 4° C. The necessary time to detect maximum germination was experimentally determined by conducting a germination kinetic assay for each B.c. strain. Measurements were done every 2 hours up until 16 hours, thus finding the maximum germination between 14 and 16 hours. The methodology used in the laboratory consisted in a spore fixation/staining process in each well, using trichloroacetic acid and sulphododamyne B, that allowed for a direct correlation between the obtained absorbance values (at 570 nm) with germinated spore number. The first experimental group was assayed without volatile compounds and was used as control (n=4), the experiment was done in sealed hermetic containers at 4° C. for 14 hours (100% of spore germination).

[2] = test system: Botrytis cinerea; assay: Botrytis cinerea radial growth bioassay with volatile compounds, no direct contact; format: cell-based; conditions: for effect on B.c. radial growth: pure compound 6, 30 and 61 μL, four strains, PDA
Method: PHBV and PEA microparticle synthesis was done by double emulsion/evaporation. Experimentally, 15 mg of PEA were added to 50 mg/mL PHBV solution in dichloromethane, and then 30 μL of distilled water. This mixture was emulsified with a homogenizer at 35,000 rpm during 30 seconds. To this emulsion, a 5% w/v polyvinyl alcohol was added, and it was homogenized at 35.000 rpm for 30 seconds. The result of this double emulsion was put in an orbital shaker for 12 hours at 100 rpm. Once the solvent evaporated, the microparticles were isolated by centrifugation, washed with distilled water and lyophilized. Subsequently, the assays described below were done.
The experimental model consisted in testing in vitro both the pure and microencapsulated phenylethylalcohol (PEA) volatile compound effect in B.c. The reporting parameter was radial growth and the volatile compound doses were determined with in vitro assays (bioassays). To do this, four different Botrytis strains were exposed to the pure compound, but without direct contact between compound and microorganism.
Bioassays were done in hermetic containers during 6 days at 4° C. (simulating storage conditions). It was previously determined that, for all the strains in study, they were able to cover almost completely the maximum container area (33 mm diameter), in 6 days. The hermetic container was assembled in such a way that there is no physical contact between the evaluated compounds and B.c, in any circumstances.
Radial growth was quantified in three independent experimental groups, which were assayed using potato dextrose agar (PDA) as nutritive support and, after the established culture conditions, initial inoculum growth diameter was determined as 7 mm (disk with actively growing B.c. using PDA as support). The first group was assayed in the container, in absence of a volatile compound and was used as control group (n=4). The second group was assayed challenging the B.c. inoculum with different PEA quantities (6, 30 y 61 μL), separately, with the same culture conditions (n=4). Finally, the third group was assayed like the second group, but with PHBV microencapsulated PEA in defined concentrations (n=2).

`OCCc1ccccc1` [PEA, phenylethylalcohol] was tested, and the “effect on Botrytis conidia germination” value [1] was “does not inhibit Botrytis conidia germination in the same way that it inhibited micellium growth”, the “effect on B.c. radial growth, statistics (ANOVA, TUKEY, p<0.05)” value ([2]; 30 and 61 μL doses, all strains, 6 days at 4° C.) was “statistically significant effect in all of the strains” and the “B.c. growth at higher doses” value ([2]; doses higher than 61 μL, 6 days) was “not a measurable growth after 6 days”. For the same molecule, the “effect on B.c. radial growth” value ([2]; 6 days at 4° C.) was “has an inhibiting effect in all the assayed B.c. strains”.

For `CCCCCC1CCCC(=O)O1` (stereo not drawn) [d-Lac, delta-decalactone], the “effect on B.c. radial growth” value ([2]; 6 days at 4° C.) was “does not present a statistically significative effect”.
